According to patent US6376670B1, “Quinoline-indole antimicrobial agents, uses and compositions related thereto” (Sepracor Inc., priority 1997, dated 2002):
In brackets after ≈: the same amount, converted by molar mass. Where two headings read alike, the source gives them in different places.

How the values were obtained:
Test in all cases: Determination of MIC values (BHI broth, 96 well microtiter plate)
Assay type in all cases: cell-based
[1] = tested on: Streptococcus pneumoniae; conditions: Streptococcus pneumoniae, BHI broth, read-out: MIC S. pneu
Method in brief: (§1)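 Here, each test series spans final concentrations of 25 to 0.39 µg/mL in BHI broth, with DMSO as diluent. Plates seeded at 10^5–10^6 cells/mL are kept at 37° C and approx. 7-10% CO2 for about 16 hours before growth is scored.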

[2] = tested on: methicillin-resistant Staphylococcus aureus (MRSA); conditions: Staphylococcus aureus, MRSA, BHI broth, read-out: MIC MRSA
Method in brief: as §1

[3] = tested on: vancomycin-resistant Enterococcus spp. (VRE); conditions: BHI broth; for MIC: Enterococcus, VRE, read-out: MIC VREF
Method in brief: as §1

[4] = 37° C., overnight (about 16 hours)
[5] = 16 h, 37° C., overnight (about 16 hours)

Structure (SMILES) | MIC ([1]; 37° C., about 16 hours) | MIC ([2]; 16 h, 37° C., about 16 hours) | MIC ([3]; 16 h, 37° C., about 16 hours) | MIC ([1]; S. pneu, overnight 37° C.) | MIC ([2]; overnight 37° C.) | MIC ([3]; VREF, overnight 37° C.) | also measured
Cc1ccc2nc(-c3c[nH]c4ccccc34)ccc2c1 [Example 481] | > 25 µg/mL | > 25 µg/mL | > 25 µg/mL | – | – | – | –
Cn1cc(-c2ccc3cc(Cl)ccc3n2)c2cc(O)ccc21 [Example 221] | – | – | – | < 7 µg/mL | < 7 µg/mL | < 7 µg/mL | –
Clc1cc(-c2c[nH]c3c(Cl)cccc23)nc2ccccc12 [Example 344] | – | – | – | < 7 µg/mL | < 7 µg/mL | > 25 µg/mL | –
O=C(c1cc(-c2c[nH]c3cc(F)ccc23)nc2cc(F)ccc12)N1CCNCC1 [Example 498] | < 25 µg/mL | < 25 µg/mL | > 25 µg/mL | – | – | – | –
Cn1cc(-c2cc(C(=O)NC3CCC(N)CC3)c3cc(I)ccc3n2)c2cc(Br)ccc21 (stereo not drawn) [Example 360] | – | – | – | < 7 µg/mL | < 7 µg/mL | < 7 µg/mL | –
c1ccc(COc2ccc3[nH]cc(-c4ccc5ccccc5n4)c3c2)cc1 [Example 184] | – | – | – | – | – | – | MIC [1, 4]: < 7 µg/mL; MIC [2, 5]: > 25 µg/mL; MIC [3, 5]: > 25 µg/mL
Clc1ccc2c(Cl)cc(-c3c[nH]c4cc(Cl)ccc34)nc2c1 [Example 463] | 25 µg/mL (≈ 71.9 µM) | 25 µg/mL (≈ 71.9 µM) | > 25 µg/mL | – | – | – | –
CCOc1cc(-c2cn(C(=O)OC(C)(C)C)c3ccc(Br)cc23)nc2ccc(I)cc12 [Example 361] | – | – | – | > 25 µg/mL | > 25 µg/mL | > 25 µg/mL | –
NCc1cccc(CNC(=O)c2cc(-c3c[nH]c4ccc(Br)cc34)nc3ccc(Cl)cc23)c1 [Example 134] | – | – | – | – | – | – | MIC [1, 4]: < 7 µg/mL; MIC [2, 5]: < 7 µg/mL; MIC [3, 5]: < 7 µg/mL
Fc1ccc2c(-c3cc(Cl)c4ccccc4n3)c[nH]c2c1 [Example 340] | – | – | – | < 7 µg/mL | < 7 µg/mL | < 7 µg/mL | –
NCc1ccc(CNC(=O)c2cc(-c3c[nH]c4ccc(Br)cc34)nc3cc(I)ccc23)cc1 [Example 249] | – | – | – | < 7 µg/mL | < 7 µg/mL | < 7 µg/mL | –
Cc1cc2ccccc2nc1-c1c[nH]c2ccc(Cl)cc12 [Example 531] | < 7 µg/mL | < 7 µg/mL | < 7 µg/mL | – | – | – | –
Clc1ccc2c(Cl)cc(-c3c[nH]c4ccc(Br)cc34)nc2c1 [Example 460] | < 7 µg/mL | < 7 µg/mL | < 7 µg/mL | – | – | – | –
Cn1cc(-c2cc(C(=O)NCC3CCCC(CN)C3)c3cc(Cl)ccc3n2)c2cc(Br)ccc21 (stereo not drawn) [Example 369] | – | – | – | < 7 µg/mL | < 7 µg/mL | < 7 µg/mL | –
Cc1cccc2ccc(-c3c[nH]c4ccc(Cl)cc34)nc12 [Example 427] | > 25 µg/mL | > 25 µg/mL | > 25 µg/mL | – | – | – | –
NCc1ccc(CNC(=O)c2cc(-c3c[nH]c4ccc(Br)cc34)nc3ccc(F)cc23)cc1 [Example 253] | – | – | – | < 7 µg/mL | < 7 µg/mL | < 25 µg/mL | –
Cc1ccc2nc(-c3c[nH]c4cc(Cl)ccc34)ccc2c1 [Example 436] | < 7 µg/mL | < 7 µg/mL | > 25 µg/mL | – | – | – | –
CC(C)(C)OC(=O)n1cc(/C=N/c2cccc(Cl)c2)c2cc(Br)ccc21 [Example 381] | – | – | – | > 25 µg/mL | > 25 µg/mL | > 25 µg/mL | –
COc1ccc2nc(-c3c[nH]c4ccc(OC)cc34)ccc2c1 [Example 430] | < 25 µg/mL | < 25 µg/mL | > 25 µg/mL | – | – | – | –
COC(=O)c1cc(-c2cn(C)c3ccc(Br)cc23)nc2cc(F)ccc12 [Example 309] | – | – | – | > 25 µg/mL | > 25 µg/mL | > 25 µg/mL | –
COc1ccc2nc(-c3c(C)[nH]c4ccc(OC)cc34)ccc2c1 [Example 428] | > 25 µg/mL | > 25 µg/mL | > 25 µg/mL | – | – | – | –
NCc1cccc(CNC(=O)c2cc(-c3c[nH]c4ccc(Br)cc34)nc3ccc(I)cc23)c1 [Example 116] | – | – | – | – | – | – | MIC [1, 4]: < 7 µg/mL; MIC [2, 5]: < 7 µg/mL; MIC [3, 5]: < 7 µg/mL

Structure (SMILES) | MIC ([1]; 37° C., about 16 hours) | MIC ([2]; 16 h, 37° C., about 16 hours) | MIC ([3]; 16 h, 37° C., about 16 hours) | MIC ([1]; S. pneu, overnight 37° C.) | MIC ([2]; overnight 37° C.) | MIC ([3]; VREF, overnight 37° C.) | also measured
NC1CCC(NC(=O)c2cc(-c3c[nH]c4ccc(Br)cc34)nc3ccc(I)cc23)CC1 (stereo not drawn) [Example 113] | – | – | – | – | – | – | MIC [1, 4]: < 7 µg/mL; MIC [2, 5]: < 7 µg/mL; MIC [3, 5]: < 7 µg/mL
NCCNC(=O)c1cc(-c2c[nH]c3ccc(Cl)cc23)nc2cc(Br)ccc12 [Example 312] | – | – | – | < 7 µg/mL | < 7 µg/mL | < 7 µg/mL | –
Cc1[nH]c2ccccc2c1-c1cc(Cl)c2ccccc2n1 [Example 352] | – | – | – | < 7 µg/mL | < 7 µg/mL | > 25 µg/mL | –
NCCCCCNC(=O)c1cc(-c2c[nH]c3ccc(Br)cc23)nc2ccc(I)cc12 [Example 110] | – | – | – | – | – | – | MIC [1, 4]: < 7 µg/mL; MIC [2, 5]: < 7 µg/mL; MIC [3, 5]: < 7 µg/mL
COc1ccc2[nH]cc(-c3ccc4cc(C)ccc4n3)c2c1 [Example 438] | > 25 µg/mL | > 25 µg/mL | > 25 µg/mL | – | – | – | –
COc1ccc(NC(=O)CCc2cc(-c3c[nH]c4ccc(Br)cc34)nc3ccc(C#CCN4CCCCC4)cc23)cc1 [Example 266] | – | – | – | < 7 µg/mL | < 7 µg/mL | > 25 µg/mL | –
NCc1cccc(CNC(=O)c2cc(-c3c[nH]c4ccc(Br)cc34)nc3cc(Cl)c(I)cc23)c1 [Example 243] | – | – | – | < 7 µg/mL | < 7 µg/mL | < 7 µg/mL | –
NCc1ccc(CNC(=O)c2cc(-c3c[nH]c4ccc(Br)cc34)nc3cc(Cl)cc(Cl)c23)cc1 [Example 209] | – | – | – | < 7 µg/mL | < 7 µg/mL | < 7 µg/mL | –
NCCCCNC(=O)c1cc(-c2c[nH]c3ccc(Br)cc23)nc2ccc(I)cc12 [Example 109] | – | – | – | – | – | – | MIC [1, 4]: < 7 µg/mL; MIC [2, 5]: < 7 µg/mL; MIC [3, 5]: < 7 µg/mL
NCCNC(=O)c1cc(-c2c[nH]c3ccc(Br)cc23)nc2cc(Cl)c(C#CCNCCc3ccccc3)cc12 [Example 530] | < 7 µg/mL | < 7 µg/mL | < 7 µg/mL | – | – | – | –
O=C(O)c1ccc2[nH]cc(-c3cc(C(=O)O)c4ccccc4n3)c2c1 [Example 76] | – | – | – | – | – | – | MIC [1, 4]: > 25 µg/mL; MIC [2, 5]: > 25 µg/mL; MIC [3, 5]: > 25 µg/mL
Cn1cc(-c2cc(C(=O)NCCN)c3cc(C#CCN4CCc5ccccc5C4)ccc3n2)c2cc(Br)ccc21 [Example 404] | < 7 µg/mL | < 7 µg/mL | < 7 µg/mL | – | – | – | –
Fc1ccc2[nH]cc(-c3ccc4ccccc4n3)c2c1 [Example 181] | – | – | – | – | – | – | MIC [1, 4]: < 7 µg/mL; MIC [2, 5]: < 7 µg/mL; MIC [3, 5]: < 25 µg/mL
Clc1ccc2nc(-c3c[nH]c4c(Br)cccc34)ccc2c1 [Example 355] | – | – | – | > 25 µg/mL | > 25 µg/mL | > 25 µg/mL | –
N#Cc1ccc2[nH]cc(-c3cc(Cl)c4ccccc4n3)c2c1 [Example 350] | – | – | – | > 25 µg/mL | > 25 µg/mL | > 25 µg/mL | –
COc1ccc2[nH]cc(-c3ccc4cc(Cl)ccc4n3)c2c1 [Example 195] | – | – | – | – | – | – | MIC [1, 4]: > 25 µg/mL; MIC [2, 5]: > 25 µg/mL; MIC [3, 5]: > 25 µg/mL
COc1ccc2nc(-c3c(C)[nH]c4ccccc34)ccc2c1 [Example 449] | > 25 µg/mL | > 25 µg/mL | > 25 µg/mL | – | – | – | –
COc1ccc2nc(-c3c[nH]c4ccc(C)cc34)ccc2c1 [Example 415] | > 25 µg/mL | < 7 µg/mL | > 25 µg/mL | – | – | – | –
OCc1cc(-c2c[nH]c3ccc(Br)cc23)nc2ccc(Cl)cc12 [Example 455] | < 7 µg/mL | < 7 µg/mL | – | – | – | – | MIC VREF ([3]; 37° C., about 16 hours): <7 µg/mL
Brc1ccc2[nH]cc(-c3nc4ccc(I)cc4c4c3CCO4)c2c1 [Example 303] | – | – | – | < 7 µg/mL | < 7 µg/mL | > 25 µg/mL | –
Cn1cc(-c2cc(C(=O)NCC3CCCC(CN)C3)c3ccc(I)cc3n2)c2cc(Br)ccc21 (stereo not drawn) [Example 332] | – | – | – | < 7 µg/mL | < 7 µg/mL | < 7 µg/mL | –
c1ccc2nc(-c3c[nH]c4ccccc34)ccc2c1 [Example 163] | – | – | – | – | – | – | MIC [1, 4]: > 25 µg/mL; MIC [2, 5]: < 25 µg/mL; MIC [3, 5]: > 25 µg/mL
